Consider 31 compounds from patent US20240368109A1, “ALLOSTERIC MODULATORS OF NICOTINIC ACETYLCHOLINE RECEPTORS” (MERCK SHARP & DOHME LLC, priority 2021, published 2024).

In this assay the target is human α7 nAChR (Homo sapiens (Human), UniProt P36544). Briefly: Automated patch-clamp electrophysiology functional assay (Assay A). Format: cell-based. As to conditions: IonFlux HT whole-cell population patch, HEK cells expressing human α7/RIC-3, 40 μM acetylcholine. The essentials: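 Whole-cell population patch clamp on HEK cells stably co-expressing human α7 and RIC-3, held at −60 mV, room temperature. Compounds tested at three ascending concentrations per recording with or without 40 μM acetylcholine; currents normalized to the 40 μM acetylcholine-evoked reference response to give agonist and potentiation EC50.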
human α7 nAChR, sequence (P36544 23-502): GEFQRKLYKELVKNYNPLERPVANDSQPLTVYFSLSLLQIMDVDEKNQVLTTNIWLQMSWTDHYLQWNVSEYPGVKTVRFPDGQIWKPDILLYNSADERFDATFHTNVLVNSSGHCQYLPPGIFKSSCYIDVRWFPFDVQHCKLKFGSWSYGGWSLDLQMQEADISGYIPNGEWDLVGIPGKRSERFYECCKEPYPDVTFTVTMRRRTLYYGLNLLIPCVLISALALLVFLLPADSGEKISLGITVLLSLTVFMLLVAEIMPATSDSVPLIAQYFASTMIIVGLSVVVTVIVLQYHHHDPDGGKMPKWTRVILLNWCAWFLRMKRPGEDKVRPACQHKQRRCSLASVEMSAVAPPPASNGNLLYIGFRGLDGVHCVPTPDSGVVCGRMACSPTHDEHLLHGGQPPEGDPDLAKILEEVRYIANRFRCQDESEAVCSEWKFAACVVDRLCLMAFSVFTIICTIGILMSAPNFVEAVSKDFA

In the case of `O=C(NCc1ccc(F)cc1F)C1C2Oc3ccc(F)cc3C21` (stereo not drawn) [Example C23, exo-N-[(2,4-difluorophenyl)methyl]-5-fluoro-1a,6b-dihydro-H-cyclopropa[b][1]benzofuran-1-carboxamide], the EC50 was 2.3 µM (electrophysiology EC50 values) and 0.5 to 5 µM (potency class).
On the same counts, the results for `Cc1cc(F)cc(CNC(=O)C2C3Oc4ccc(F)cc4C32)c1` (stereo not drawn) [Example C24, exo-5-fluoro-N-[(3-fluoro-5-methylphenyl)methyl]-1a,6b-dihydro-1H-cyclopropa[b][1]benzofuran-1-carboxamide] are 0.95 µM and 0.5 to 5 µM.
As for `O=C(NCc1ccc(-n2cccc2)cc1)C1C2Oc3ccc(F)cc3C21` (stereo not drawn) [Example C25, exo-5-fluoro-N-{[4-(1H-pyrrol-1-yl)phenyl]methyl}-1a,6b-dihydro-1H-cyclopropa[b][1]benzofuran-1-carboxamide], the EC50 reads like this: (electrophysiology EC50 values) 0.85 µM; (potency class) 0.5 to 5 µM.
On the same counts, the results for `O=C(NCc1ccc(O)cc1)C1C2Oc3ccc(F)cc3C21` (stereo not drawn) [Example C26, exo-5-fluoro-N-[(4-hydroxyphenyl)methyl]-1a,6b-dihydro-1H-cyclopropa[b][1]benzofuran-1-carboxamide] are 0.68 µM and 0.5 to 5 µM.
The like results for `O=C(NCc1ccc2ncccc2c1)C1C2Oc3ccc(F)cc3C21` (stereo not drawn) [Example C27, 6-{[(exo-5-fluoro-1a,6b-dihydro-1H-cyclopropa[b][1]benzofuran-1-carbonyl)amino]methyl}quinoline] were, in that order, 2 µM and 0.5 to 5 µM.
Consider `O=C(NCc1nc2ccccc2s1)C1C2Oc3ccc(F)cc3C21` (stereo not drawn) [Example C28, 2-{[(exo-5-fluoro-1a,6b-dihydro-1H-cyclopropa[b][1]benzofuran-1-carbonyl)amino]methyl}-1,3-benzothiazole], for which, under “potency class”, the EC50 is 0.5 to 5 µM.
`COC(=O)C(NC(=O)C1C2Oc3ccc(F)cc3C21)c1cccc(Cl)c1` (stereo not drawn) [Example C29, methyl 2-(3-chlorophenyl)-2-[(exo-5-fluoro-1a,6b-dihydro-1H-cyclopropa[b][1]benzofuran-1-carbonyl)amino]acetate]: the EC50 (electrophysiology EC50 values) came to 1.8 µM and the EC50 (potency class) lay within 0.5 to 5 µM.
Take `O=C(N[C@@H](CCO)c1ccc(F)cc1)C1C2Oc3ccc(F)cc3C21` (stereo partly drawn) [Example C30, exo-5-fluoro-N-[(1S)-1-(4-fluorophenyl)-3-hydroxypropyl]-1a,6b-dihydro-1H-cyclopropa[b][1]benzofuran-1-carboxamide]: the EC50 reads like this: (electrophysiology EC50 values) 2.8 µM; (potency class) 0.5 to 5 µM.
On the same counts, the results for `Cc1ccccc1CNC(=O)C1C2Oc3ccc(F)cc3C21` (stereo not drawn) [Example C31, exo-5-fluoro-N-[(2-methylphenyl)methyl]-1a,6b-dihydro-1H-cyclopropa[b][1]benzofuran-1-carboxamide] are 1.8 µM and 0.5 to 5 µM.
The like results for `O=C(NCc1cc(-c2ccccc2)no1)C1C2Oc3ccc(F)cc3C21` (stereo not drawn) [Example C32, exo-5-fluoro-N-[(3-phenyl-1,2-oxazol-5-yl)methyl]-1a,6b-dihydro-1H-cyclopropa[b][1]benzofuran-1-carboxamide] were, in that order, 0.19 µM and 0.1 to 0.5 µM.
In the case of `O=C(NCc1n[nH]c2c1CCCCC2)[C@H]1[C@@H]2Oc3ccc(F)cc3[C@@H]21` [Example C33, 3-{[(exo-5-fluoro-1a,6b-dihydro-1H-cyclopropa[b][1]benzofuran-1-carbonyl)amino]methyl}-1,4,5,6,7,8-hexahydrocyclohepta[c]pyrazole], the 50% effective concentration (EC50) (potency class) was 0.5 to 5 µM.
Take `O=C(NCc1ccc(Oc2ccccn2)cc1)C1C2Oc3ccc(F)cc3C21` (stereo not drawn) [Example C34, exo-5-fluoro-N-({4-[(pyridin-2-yl)oxy]phenyl}methyl)-1a,6b-dihydro-1H-cyclopropa[b][1]benzofuran-1-carboxamide]: the EC50 is, setting by setting: (electrophysiology EC50 values) 0.81 µM; (potency class) 0.5 to 5 µM.
The like results for `O=C(NCc1cccc(-c2ncco2)c1)C1C2Oc3ccc(F)cc3C21` (stereo not drawn) [Example C35, exo-5-fluoro-N-{[3-(1,3-oxazol-2-yl)phenyl]methyl}-1a,6b-dihydro-1H-cyclopropa[b][1]benzofuran-1-carboxamide] were, in that order, 2.4 µM and 0.5 to 5 µM.
The like results for `C[C@H](NC(=O)C1C2Oc3ccc(F)cc3C21)c1cccc2ncccc12` (stereo partly drawn) [Example C36, 5-{(1S)-1-[(exo-5-fluoro-1a,6b-dihydro-1H-cyclopropa[b][1]benzofuran-1-carbonyl)amino]ethyl}quinoline] were, in that order, 1.3 µM and 0.5 to 5 µM.
The like results for `CC(NC(=O)C1C2Oc3ccc(F)cc3C21)c1ccc(Br)cc1` (stereo not drawn) [Example C37, exo-N-[1-(4-bromophenyl)ethyl]-5-fluoro-1a,6b-dihydro-1H-cyclopropa[b][1]benzofuran-1-carboxamide] were, in that order, 1.8 µM and 0.5 to 5 µM.
As for `O=C(NCc1ccc2cnccc2c1)C1C2Oc3ccc(F)cc3C21` (stereo not drawn) [Example C38, 6-{[(exo-5-fluoro-1a,6b-dihydro-1H-cyclopropa[b][1]benzofuran-1-carbonyl)amino]methyl}isoquinoline], the EC50 (electrophysiology EC50 values) amounted to 4.7 µM and the EC50 (potency class) was 0.5 to 5 µM.
For `O=C(NC(c1ccccc1)c1ccncc1)[C@@H]1[C@H]2Oc3ccc(F)cc3[C@H]21` (stereo partly drawn) [Example C39, 4-{[(exo-5-fluoro-1a,6b-dihydro-1H-cyclopropa[b][1]benzofuran-1-carbonyl)amino](phenyl)methyl}pyridine], the EC50 (potency class) lay in the range of 0.5 to 5 µM.
Regarding `O=C(NCc1ccccc1OCC1CC1)C1C2Oc3ccc(F)cc3C21` (stereo not drawn) [Example C40, exo-N-{[2-(cyclopropylmethoxy)phenyl]methyl}-5-fluoro-1a,6b-dihydro-1H-cyclopropa[b][1]benzofuran-1-carboxamide], the EC50 is, setting by setting: (electrophysiology EC50 values) 0.62 µM; (potency class) 0.5 to 5 µM.
With `O=C(NCc1nc(Br)no1)C1C2Oc3ccc(F)cc3C21` (stereo not drawn) [Example C41, exo-N-[(3-bromo-1,2,4-oxadiazol-5-yl)methyl]-5-fluoro-1a,6b-dihydro-1H-cyclopropa[b][1]benzofuran-1-carboxamide], for the setting “potency class”, the EC50 was in the range of 0.5 to 5 µM.
`O=C(NCc1nc(Cc2ccccc2)no1)C1C2Oc3ccc(F)cc3C21` (stereo not drawn) [Example C42, exo-N-[(3-benzyl-1,2,4-oxadiazol-5-yl)methyl]-5-fluoro-1a,6b-dihydro-1H-cyclopropa[b][1]benzofuran-1-carboxamide]: the EC50 by setting is: (electrophysiology EC50 values) 6.6 µM; (potency class) 5 to 50 µM.
On the same counts, the results for `CC(NC(=O)C1C2Oc3ccc(F)cc3C21)c1ccno1` (stereo not drawn) [Example C43, exo-5-fluoro-N-[1-(1,2-oxazol-5-yl)ethyl]-1a,6b-dihydro-1H-cyclopropa[b][1]benzofuran-1-carboxamide] are 1.9 µM and 0.5 to 5 µM.
As for `COc1ccc(-c2cc(CNC(=O)C3C4Oc5ccc(F)cc5C43)on2)cc1` (stereo not drawn) [Example C44, exo-5-fluoro-N-{[3-(4-methoxyphenyl)-1,2-oxazol-5-yl]methyl}-1a,6b-dihydro-1H-cyclopropa[b][1]benzofuran-1-carboxamide], the EC50 (potency class) is 5 to 50 µM.
On the same count and under the same terms, as for `COc1cc(CNC(=O)C2C3Oc4ccc(F)cc4C32)on1` (stereo not drawn) [Example C45, exo-5-fluoro-N-[(3-methoxy-1,2-oxazol-5-yl)methyl]-1a,6b-dihydro-1H-cyclopropa[b][1]benzofuran-1-carboxamide], the figure is 5 to 50 µM.
Consider `O=C(NCc1cc(-c2ccccn2)no1)C1C2Oc3ccc(F)cc3C21` (stereo not drawn) [Example C46, exo-5-fluoro-N-{[3-(pyridin-2-yl)-1,2-oxazol-5-yl]methyl}-1a,6b-dihydro-1H-cyclopropa[b][1]benzofuran-1-carboxamide], for which the EC50 runs as follows: (electrophysiology EC50 values) 0.52 µM; (potency class) 0.5 to 5 µM.
Turning to `O=C(NCc1cc(Br)no1)C1C2Oc3ccc(F)cc3C21` (stereo not drawn) [Example C47, exo-N-[(3-bromo-1,2-oxazol-5-yl)methyl]-5-fluoro-1a,6b-dihydro-1H-cyclopropa[b][1]benzofuran-1-carboxamide], under “potency class”, the EC50 lay in the range of 0.5 to 5 µM.
For the compound `O=C(NCc1cc(-c2ccccc2)no1)C1C2Oc3ccc(F)cc3C21` (stereo not drawn) [Example C48, exo-5-fluoro-N-[(3-phenyl-1,2-oxazol-5-yl)methyl]-1a,6b-dihydro-1H-cyclopropa[b][1]benzofuran-1-carboxamide], the EC50 is 0.55 µM (electrophysiology EC50 values) and 0.5 to 5 µM (potency class).
The like results for `O=C(NCc1noc(-c2ccccc2)n1)C1C2Oc3ccc(F)cc3C21` (stereo not drawn) [Example C49, exo-5-fluoro-N-[(5-phenyl-1,2,4-oxadiazol-3-yl)methyl]-1a,6b-dihydro-1H-cyclopropa[b][1]benzofuran-1-carboxamide] were, in that order, 0.27 µM and 0.1 to 0.5 µM.
With `O=C(NCc1nnc(-c2ccccc2)o1)C1C2Oc3ccc(F)cc3C21` (stereo not drawn) [Example C50, exo-5-fluoro-N-[(5-phenyl-1,3,4-oxadiazol-2-yl)methyl]-1a,6b-dihydro-1H-cyclopropa[b][1]benzofuran-1-carboxamide], the EC50 (electrophysiology EC50 values) turned out to be 0.48 µM and the EC50 (potency class) was 0.1 to 0.5 µM.
The like results for `COc1ccc(-c2noc(CNC(=O)C3C4Oc5ccc(F)cc5C43)n2)cn1` (stereo not drawn) [Example C51, exo-5-fluoro-N-{[3-(6-methoxypyridin-3-yl)-1,2,4-oxadiazol-5-yl]methyl}-1a,6b-dihydro-1H-cyclopropa[b][1]benzofuran-1-carboxamide] were, in that order, 1 µM and 0.5 to 5 µM.
On to `O=C(NCc1cc(-c2ccc(Cl)cc2)no1)C1C2Oc3ccc(F)cc3C21` (stereo not drawn) [Example C52, exo-N-{[3-(4-chlorophenyl)-1,2-oxazol-5-yl]methyl}-5-fluoro-1a,6b-dihydro-1H-cyclopropa[b][1]benzofuran-1-carboxamide], for which the EC50 (potency class) is 0.5 to 5 µM.
Regarding `O=C(NCc1nc(-c2ccccc2)no1)C1C2Oc3ccc(F)cc3C21` (stereo not drawn) [Example C53, exo-5-fluoro-N-[(3-phenyl-1,2,4-oxadiazol-5-yl)methyl]-1a,6b-dihydro-1H-cyclopropa[b][1]benzofuran-1-carboxamide], the EC50 runs as follows: (electrophysiology EC50 values) 1.5 µM; (potency class) 0.5 to 5 µM.
